# Measured values taken from patent US9265845B2, “Imaging methods using engineered integrin binding peptides” (The Board of Trustees of the Leland Stanford Junior …, priority 2006, dated 2016).
# pIC50: −log10 of the molar value. No end group written: not given here.
# Columns and labels:
# [1] = tested on: fibronectin cell adhesion; conditions: cited from earlier work
# αvβ3 and αvβ5 integrins = conditions: inhibiting cell adhesion mediated by αvβ3 and αvβ5 integrins; cited from earlier work
# U87MG glioblastoma cells [2] = experiment: Blocking of U87MG cell adhesion to vitronectin-coated plates; assay type: cell-based; conditions: vitronectin-coated plates
# Description: (§1) The present engineered peptides may be used in a variety of ways. If the peptides are attached to a surface, they may be used to attract/recruit cells to grow on the surface. For example, the present peptides may be applied to prosthetic devices, implants, bone grafts, and the like to promote tissue growth and healing at the site. They may be attached to culture dishes and promote attachment and differentiation of cells in culture. In addition, the present engineered peptides may be used to modulate cell binding to selected integrins such as α5β1, αvβ3 and αvβ5, particularly αvβ3, by adding the peptides to a cell culture to prevent cells expressing these integrins from adhering to a substrate. […] Also, the present 2.5F, 2.5D and 1.5B peptides were tested for blocking adhesion of U87MG glioblastoma cells to fibronectin-coated plates.
# (§2) In another experiment, the ability of engineered knottin peptides to block U87MG cell adhesion to vitronectin- and fibronectin-coated microtiter plates. Vitronectin is a natural ligand for several integrins, including αvβ3 and αvβ5. The RGD-containing peptides were all able to inhibit U87MG cell adhesion to vitronectin-coated plates in a dose-responsive manner. […] Fibronectin also binds to several integrins, (including αvβ3 and α5β1), but the α5β1 integrin receptor is generally selective for fibronectin.
# Whether the engineered AgRP peptides could block vitronectin-mediated adhesion to the U87MG cells was tested using an analogous assay. […] The AgRP peptides may not effectively block U87MG adhesion compared to the K562-αvβ3 cells because the αvβ5 integrins co-expressed on the surface of the U87MG cells could also contribute to vitronectin-mediated adhesion and compensate for the loss of αvβ3 integrin function.
# U87MG glioblastoma cells [3] = experiment: Blocking of U87MG cell adhesion to fibronectin-coated plates; assay type: cell-based
# Description: as §1, §2
# [4] = target: T1, αvβ3 integrin on U87MG glioblastoma cells (Homo sapiens, UniProt P05106+P06756); experiment: 125I-echistatin competition binding to U87MG glioblastoma cells
# T1 construct: host or cells: U87MG glioblastoma cells
# Procedure: FIG. 9 is a graph showing normalized competition plotted against peptide concentration in an integrin-binding assay on U87MG glioblastoma cells.
# U87MG glioblastoma cells, which express ˜10^5 αvβ3 integrin receptors per cell, were used for these studies. […] An EETI-based polypeptide with a scrambled RDG amino acid sequence, designated FN-RDG, served as a negative control.
# Half-maximal inhibitory concentrations (IC50) […] of data measured on at least three separate days. Data for unlabeled and Cy5.5-labeled peptides are shown. Site-specific labeling of RGD miniproteins with a near-infrared optical imaging probe: The free N-terminal amine of our polypeptides was used for site-specific attachment of Cy5.5, a near infrared imaging probe.
# An αvβ3 integrin receptor binding assay is performed to determine the relative affinities of the mock-PET tracers compared to their unlabeled polypeptides. Briefly, 2×10^5 U87MG glioblastoma cells are incubated with 0.06 nM ^125I-echistatin in integrin binding buffer (25 mM Tris-HCl, pH 7.4, 150 mM NaCl2 1 mM CaCl2 1 mM MgCl2, 1 mM MnCl2, 0.1% BSA), in the presence of increasing concentrations of mock-PET tracers at room temperature. After incubation for 3 h, cells are pelleted by centrifugation at 1500 RPM and washed three times in binding buffer to remove unbound ligands. The radioactivity remaining in the cell pellet is measured by γ counting. IC50 values are determined by plotting the % competition and using a four-point binding equation (Kaleidagraph) to fit the data.
# αiibβ3 integrin = αiibβ3 integrin (Homo sapiens, UniProt P05106+P08514); experiment: Competition of 125I-echistatin to detergent-solubilized plate-coated integrin; assay type: binding; conditions: 0.06 nM 125I echistatin, 5 nM and 50 nM peptide
# Procedure: (§3) FIG. 10A through FIG. 10D is a series of histograms showing binding specificities to integrins αvβ3, αvβ5, α5β1, and αiibβ3 for engineered EETI-RGD peptides compared to controls. Error bars represent experiments performed in triplicate. Competition binding of 0.06 nM ^125I echistatin with 5 nM (black bars) and 50 nM (grey bars) unlabeled peptide to plate-coated integrins was measured. […] The engineered peptides have very little binding to αiibβ3 integrin.
# (§4) This was done by competition of ^125I-echistatin to detergent-solubilized integrin receptors coated onto microtiter plates (see FIG. 10). […] This is consistent with previous studies which have shown αv integrin receptors can accommodate a wide range of RGD-containing cyclic structures. […] However, since α5β1 integrins are expressed on many tumors and are all involved in mediating angiogenesis and metastasis, a broad spectrum agent that targets all three integrins will be useful for diagnostic and therapeutic applications. With the exception of echistatin, all of the RGD-containing peptides bound weakly to the αiibβ3 receptor, showing the specificity of the present peptides for the αv and α5-containing integrin heterodimers. This characteristic is valuable for molecular imaging and therapeutic applications, since binding to αiibβ3 on platelet cells prevents blood clotting and would lead to non-specific in vivo effects.
# α5β1 integrin = α5β1 integrin (Homo sapiens, UniProt P05556+P08648); experiment: as above; assay type: binding; conditions: 0.06 nM 125I echistatin, 5 nM and 50 nM peptide
# Procedure: as §3, §4
# αvβ3 integrin = αvβ3 integrin (Homo sapiens, UniProt P05106+P06756); experiment: as above; assay type: binding; conditions: 0.06 nM 125I echistatin, 5 nM and 50 nM peptide
# Procedure: as §3, §4
# αvβ5 integrin = αvβ5 integrin (Homo sapiens, UniProt P06756+P18084); experiment: as above; assay type: binding; conditions: 0.06 nM 125I echistatin, 5 nM and 50 nM peptide
# Procedure: as §3, §4
# α5β1 expressing cells = conditions: inhibiting attachment of α5β1 expressing cells to fibronectin; cited from earlier work
# in vitro = in vitro ADME; conditions: mouse serum, 37° C., read-out: peptide remaining
# Description: Their larger size (˜3-4 kDa) and enhanced affinity compared to RGD-based cyclic peptides confer enhanced pharmacokinetics and biodistribution for molecular imaging and therapeutic applications. This is described in connection with FIG. 8. These RGD-miniproteins are small enough to allow for chemical synthesis and site-specific conjugation of imaging probes, radioisotopes, or chemotherapeutic agents. Furthermore, they can easily be chemically modified to further improve in vivo properties if necessary. […] The tumor is indicated by an arrow. The near infrared fluorescent Cy5.5 label study provides guidance for the preparation of these polypeptides as ^18F and ^64Cu-labeled PET imaging probes. […]
# (§5) The stability of the knottin peptide 2.5D upon exposure to human or mouse serum at 37° C. was measured. Reversed-phase HPLC was used to quantify the amount of intact knottin peptide remaining at various times post incubation.
# Nonradioactive mock-PET tracers are incubated with mouse and human serum for various time points at 37° C., and aliquots are acidified and flash frozen. […] The cartridge-bound PET-tracers are eluted with 90% acetonitrile containing 0.1% TFA, lyophilized, and resuspended in solvent A. The solution is passed through a NANOSEP (Pall Corp) 10 kDa cutoff filter and analyzed by reversed-phase HPLC to determine the amount of polypeptide-conjugate remaining.
# U87MG tumor = experiment: MicroPET imaging and biodistribution of radiolabeled peptides in U87MG tumor-bearing mice; assay type: in vivo, mouse; conditions: 64Cu-DOTA-labeled peptides, compared to 64Cu-DOTA-c(RGDyK)
# Procedure: MicroPET imaging of tumor-bearing mice is performed on a microPET R4 rodent model scanner (Concorde Microsystems Inc, Knoxyille, Tenn.). U87MG tumor bearing mice are injected with PET imaging agent via the tail vein. At various times post injection, the mice are anesthetized with 2% isoflurane, and 10 min static scans are obtained. Images are reconstructed by a two-dimensional ordered expectation maximum subset algorithm as previously described. Regions of interest (ROI) are drawn over the tumor on decay corrected whole body images and ROI derived % injected dose per gram of tissue is determined. Statistical analysis is performed using the student's t-test for unpaired data. A 95% confidence level is used to determine statistical significance.
# Female athymic mice bearing U87MG tumors were injected with 80-150 μCi of ^64Cu-DOTA-knottin 2.5D or 7-9 μCi of [^18F]-FB-E[knottin 2.5D]. Static images were taken at various timepoints post injection using a microPET R4 rodent model scanner (Concorde Microsystems Inc, Knoxyille, Tenn.). […] Uptake was also observed in the kidney as both probes cleared through the bladder.
# Mice are sacrificed by exanguinations at various time points postinjection. Blood, tumor and the major organs and tissues are collected, wet-weighed and measured in a γ-counter. The % injected dose per gram is determined for each sample. For each mouse, radioactivity of the tissue samples is calibrated against a known aliquot of the injectate. Values are reported as the mean±standard deviation.
# The following Table 10 quantifies the ^64Cu-DOTA knottin uptake by direct tissue sampling of the mice up to 24 hours post injection and is reported in % ID (percent injected dose)/gram. Similar results were obtained with [^18F]-FB-E[knottin 2.5D].
# A U87MG glioblastoma xenograft mouse model was used. U87MG cells were maintained at 37° C. in a humidified atmosphere containing 5% CO2 in Dulbecco's modified eagle medium, 10% heat-inactivated fetal bovine serum, and penicillin-streptomycin (all from Invitrogen). Animal procedures were carried out according to a protocol by Stanford University Administrative Panels on Laboratory Animal Care. Female athymic nude mice (nu/nu), obtained at 4-6 weeks of age (Charles River Laboratories, Inc.), were injected subcutaneously in the right or left shoulder with 2×10^7 U87MG glioblastoma cells suspended in 100 μL of PBS. Mice were used for in vivo imaging studies when their tumors reached approximately 8 to 10 millimeters in diameter.
# U87MG tumor-bearing mice (n=3 or more for each probe) were injected with ˜100 μCi of ^64Cu-DOTA-conjugated peptides via the tail vein and imaged with a microPET R4 rodent model scanner (Siemens Medical) using 3 or 5 min static scans. […] Images were reconstructed by a two dimensional ordered expectation maximum subset algorithm and calibrated as previously described (Wu, Y, Zhang, X, Xiong, Z, et al. microPET imaging of glioma integrin {alpha}v{beta}3 expression using (64)Cu-labeled tetrameric RGD peptide. J Nucl Med 2005; 46:1707-18). ROIs were drawn over the tumor on decay-corrected whole body images using ASIPro VM software (Siemens Medical). The mean counts per pixel per minute were obtained from the ROI and converted to counts per milliliter per minute with a calibration constant. ROIs were converted to counts/g/min, and % ID/g values were determined assuming a tissue density of 1 g/mL. No attenuation correction was performed.
# [5] = Stability in human serum at 37° C., reversed-phase HPLC; assay type: in vitro ADME
# Procedure: as §5
# Nonradioactive mock-PET tracers are incubated with mouse and human serum for various time points at 37° C., and aliquots are acidified and flash frozen. The aliquots are then thawed and microcentrifuged at high speeds to remove aggregates. The soluble fraction is passed through a Sep-Pak C18 cartridge (Waters Corp), and rinsed several times with water containing 0.1% TFA (solvent A). The cartridge-bound PET-tracers are eluted with 90% acetonitrile containing 0.1% TFA, lyophilized, and resuspended in solvent A. The solution is passed through a NANOSEP (Pall Corp) 10 kDa cutoff filter and analyzed by reversed-phase HPLC to determine the amount of polypeptide-conjugate remaining.
compound,measurement,setting,value
GRGD,pIC50,[1],2.97
"ACDCRGDCFCG (disulfide (positions not given here); also: two disulfide bonds, pairing not given here)",fold more effective than comparable peptides with one disulfide bond,αvβ3 and αvβ5 integrins,20 fold
same,fold more potent than linear RGD peptides,αvβ3 and αvβ5 integrins,200 fold
"FN-RDG: EETI-based polypeptide with a scrambled RDG amino acid sequence, negative control (GCVTGRDGSPASSCSQDSDCLAGCVCGPNGFCG)","blocking of U87MG cell adhesion to vitronectin, in words",U87MG glioblastoma cells [2],not able to inhibit
same,"blocking of U87MG cell adhesion to fibronectin, in words",U87MG glioblastoma cells [3],not able to inhibit
same,"binding to U87MG cells / competition with 125I-echistatin, in words",[4],not able to compete
same,"binding to αiibβ3 integrin, in words",αiibβ3 integrin,did not bind
same,"binding to α5β1 integrin, in words",α5β1 integrin,did not bind
same,"binding to αvβ3 integrin, in words",αvβ3 integrin,did not bind
same,"binding to αvβ5 integrin, in words",αvβ5 integrin,did not bind
CRGDCL (also: cyclic),fold more potent than linear RGD hexapeptides,α5β1 expressing cells,10 fold
CC(C)[C@@H]1NC(=O)[C@@H]2CSSC[C@H](NC(=O)CN)C(=O)N3CCC[C@H]3C(=O)N[C@@H](CCC(N)=O)C(=O)NCC(=O)N[C@@H](CCCNC(=N)N)C(=O)NCC(=O)N[C@@H](CC(=O)O)C(=O)N[C@@H](Cc3c[nH]c4ccccc34)C(=O)N[C@@H](C)C(=O)N3CCC[C@H]3C(=O)N[C@@H]([C@@H](C)O)C(=O)N[C@@H](CO)C(=O)N[C@H]3CSSC[C@H](NC1=O)C(=O)NCC(=O)N1CCC[C@H]1C(=O)N[C@@H](CC(N)=O)C(=O)NCC(=O)N[C@@H](Cc1ccccc1)C(=O)N[C@H](C(=O)NCC(=O)O)CSSC[C@H](NC(=O)[C@H](CC(=O)O)NC(=O)[C@H](CO)NC(=O)[C@H](CC(=O)O)NC(=O)[C@H](CCC(N)=O)NC(=O)[C@H](CO)NC3=O)C(=O)N[C@@H](CCCNC(=N)N)C(=O)N[C@@H](C)C(=O)NCC(=O)N2 [2.5D],remaining at 24 h,in vitro; 24 h,~90%
same,remaining at 96 h,in vitro; 96 h,~70%
same,"liver uptake, in words",U87MG tumor,lower liver uptake
same,"blocking of U87MG cell adhesion to vitronectin, in words",U87MG glioblastoma cells [2],blocked adhesion better than controls
same,"blocking of U87MG cell adhesion to fibronectin, in words",U87MG glioblastoma cells [3],only echistatin and polypeptide 2.5F blocked adhesion
same,remaining at 24 h,"[5]; 24 h, read-out: peptide remaining",~90%
same,peptide remaining,[5]; 96 h,approximately 70%
same,"binding to α5β1 integrin, in words",α5β1 integrin,only minimal binding
same,"binding to αvβ3 integrin, in words",αvβ3 integrin,strongest levels of binding
same,"binding to αvβ5 integrin, in words",αvβ5 integrin,strongest levels of binding
